From ChEMBL document CHEMBL1201862, “PubChem BioAssay data set” (2004) come the findings set out here.

Common to all, as to test: NCI anticancer screen, dose series, 48 h
The test system of assay [1] is ACHN.
In assay [2] the test system is SN12C.
Assay [3] has as its system Malme-3M.
The subject of assay [4] is NCI/ADR-RES.
Assay [5] has as its system K562.
For assay [6], the system named is CCRF-CEM.
In assay [7] the test system is OVCAR-5.
The subject of assay [8] is MOLT-4.
Assay [9] concerns TK-10.
In assay [10] the test system is HCT-116.
The subject of assay [11] is Hs-578T.
The subject of assay [12] is COLO 205.
Assay [13] concerns UO-31.
Assay [14] concerns IGROV-1.
Assay [15] relates to SF-539.
The subject of assay [16] is NCI-H23.
Assay [17] concerns A549.
In assay [18] the test system is PC-3.
Assay [19] relates to BT-549.

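Test compounds were applied to cells in 96-well plates for 48 hours at 5 doses. GI50 marks 50% less growth.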 Active and inactive are the calls of the source. No stated cut-off is given here; in the data, active = GI50 up to about 1.1 µM and inactive = higher.

With `COc1ccccc1Cn1[nH]c(=O)c2cc([N+](=O)[O-])ccc21`, the GI50 in [1] was 75 µM (inactive); in [2], > 100 µM (inactive); in assay [3] it was > 100 µM (inactive); in assay [4] it was 75.5 µM (inactive); in assay [5] it was 51.6 µM (inactive); in assay [6], > 100 µM (inactive). Moreover, the GI50 in assay [7] is > 100 µM (inactive); in [8], > 100 µM (inactive); in [9] it was > 100 µM (inactive); in assay [10] it was > 100 µM (inactive); in assay [11] it was 23.7 µM (inactive); in assay [12], > 100 µM (inactive). Further, the GI50 in assay [13] was > 100 µM (inactive); in assay [14] it was 43.5 µM (inactive); in [15], > 100 µM (inactive); in assay [16], > 100 µM (inactive); in assay [17] it was 93.1 µM (inactive).

Consider `C[C@@H](CCO)OC1OC(COC(=O)C(C)(C)C)C(OC(=O)C(C)(C)C)C(OC(=O)C(C)(C)C)C1OC(=O)C(C)(C)C` (some centres undefined), for which the GI50 in assay [18] was 22.2 µM (inactive); in assay [1], 34.2 µM (inactive); in assay [2], 22.1 µM (inactive); in assay [4], > 100 µM (inactive); in [5], 89.7 µM (inactive); in [6], 33.7 µM (inactive). In addition, the GI50 in assay [7] was > 100 µM (inactive); in [8], 12.9 µM (inactive); in [9] it was 50.7 µM (inactive); in assay [10], 18 µM (inactive); in assay [11], 20.7 µM (inactive); in assay [12], > 100 µM (inactive). Moreover, the GI50 was 28.2 µM (inactive) in assay [14]; 33.4 µM (inactive) in assay [15]; > 100 µM (inactive) in [16]; 14.1 µM (inactive) in assay [17]; 73.5 µM (inactive) in assay [19].

In the case of `NNC(=O)C1(NC(=O)c2ccccc2)C(c2ccccc2)C(c2ccccc2)=NN1c1ccccc1` (centres undefined), the GI50 in assay [18] is 24.4 µM (inactive); in [1], 35.5 µM (inactive); in assay [2], 63.2 µM (inactive); in assay [3], > 100 µM (inactive); in [4] it was 32.1 µM (inactive); in assay [5], 27.2 µM (inactive). In addition, the GI50 in assay [6] is 8.99 µM (inactive); in [7], 33 µM (inactive); in [8], 12.7 µM (inactive); in assay [9], 58.2 µM (inactive); in assay [10] it was 37 µM (inactive); in [12], 45.5 µM (inactive). Also, the GI50 in assay [13] was 27.8 µM (inactive); in assay [14], 34.9 µM (inactive); in assay [15], 44.2 µM (inactive); in assay [16], 54 µM (inactive); in assay [17], 43.5 µM (inactive); in [19], 71.8 µM (inactive).

For `CCOC(=O)C(=CNc1ccc(F)c(F)c1)C(=O)OCC`, the GI50 in assay [18] was 67.6 µM (inactive); in assay [1], > 100 µM (inactive); in [2] it was > 100 µM (inactive); in assay [3] it was > 100 µM (inactive); in [4], > 100 µM (inactive); in [5], 39.4 µM (inactive). Besides, the GI50 is 54.5 µM (inactive) in assay [6]; > 100 µM (inactive) in assay [7]; 46 µM (inactive) in assay [8]; > 100 µM (inactive) in [9]; > 100 µM (inactive) in [10]; > 100 µM (inactive) in [11]. The GI50 in assay [12] was > 100 µM (inactive); in assay [13], 55.3 µM (inactive); in assay [14], > 100 µM (inactive); in assay [15], > 100 µM (inactive); in assay [16], > 100 µM (inactive); in assay [17] it was > 100 µM (inactive).

For the compound `C=C1C2C[C@@H]3OC4CC5O[C@]6(CC5OC4C(C)C3OC(=O)CC3CC[C@@H]4OC5C7OC8C[C@](CCC9CC(=C)[C@H](CCC(C[C@H]1C)O2)O9)(OC7C4O3)O[C@@H]85)C[C@@H]1O[C@@]2(CC(C)[C@@H]3OC(CC(=O)CCO)C(O)C[C@@H]3O2)CC(C)[C@@H]1O6` (some centres undefined), the GI50 in assay [1], in [2], in assay [3], in assay [5], in assay [6] and in assay [7] was < 0.001 µM (active) each time. Further, the GI50 in assay [8], in assay [10], in assay [12], in assay [13], in assay [14] and in assay [15] was < 0.001 µM (active) in each case. Besides, the GI50 in [16] and in assay [17] was < 0.001 µM (active) each time.

Turning to `C#CCCOC(=O)c1ccccc1OC(C)=O`, the GI50 in [18], in assay [1], in assay [2], in assay [4], in [5] and in assay [6] was > 100 µM (inactive) in each case. Moreover, the GI50 in assay [7], in assay [8], in assay [9], in assay [10], in assay [11] and in [12] was > 100 µM (inactive) each time. In addition, the GI50 in assay [13], in assay [14], in assay [15], in [16] and in [19] was > 100 µM (inactive) each time.

Take `CCOC(=O)c1nc2ccc(C(F)(F)F)cc2nc1NCc1ccc(F)cc1`: the GI50 was 29.4 µM (inactive) in [18]; 31.6 µM (inactive) in [1]; 28.8 µM (inactive) in assay [2]; 35.5 µM (inactive) in assay [3]; 24 µM (inactive) in assay [4]; 24.5 µM (inactive) in assay [5]. The GI50 in assay [6] was 24.9 µM (inactive); in assay [7], 64.3 µM (inactive); in assay [8] it was 42.8 µM (inactive); in assay [9], 27.9 µM (inactive); in assay [10], 35.9 µM (inactive); in assay [11] it was 21.5 µM (inactive). Further, the GI50 in [12] was 27 µM (inactive); in assay [13] it was 29 µM (inactive); in assay [14] it was 26.5 µM (inactive); in assay [15], 80 µM (inactive); in assay [16] it was 27.5 µM (inactive); in [17], 42.8 µM (inactive).

As for `CCOc1ccc(/C=C2\N=C(c3ccc([N+](=O)[O-])cc3)OC2=O)cc1`, the GI50 in [18], in [1], in [2], in [3], in [5] and in [6] was > 100 µM (inactive) each time. Moreover, the GI50 in assay [7], in assay [8], in assay [9], in assay [10], in assay [11] and in assay [12] was > 100 µM (inactive) each time. Besides, the GI50 in [14], in assay [15], in assay [16], in assay [17] and in [19] was > 100 µM (inactive) in each case.

Regarding `Cc1n[nH]c(=O)n1/N=C/c1ccc(Cl)cc1`, the GI50 was > 100 µM (inactive) in [1]; 70.6 µM (inactive) in assay [2]; 49.3 µM (inactive) in [4]; > 100 µM (inactive) in assay [5]; 31.1 µM (inactive) in [6]; > 100 µM (inactive) in [7]. For the same compound, the GI50 is 54.3 µM (inactive) in assay [8]; 64.4 µM (inactive) in [10]; 43.3 µM (inactive) in assay [12]; 61.1 µM (inactive) in assay [13]; 78.2 µM (inactive) in assay [15]; 27.9 µM (inactive) in assay [16]. In addition, the results for the GI50 in [17] and in assay [19] were 61.2 µM (inactive) and 23.1 µM (inactive), respectively.

On to `O=C(O)c1nc2ccc(C(F)(F)F)cc2nc1NCc1ccc(Cl)c(Cl)c1`, for which the GI50 was 15.3 µM (inactive) in [18]; 15.4 µM (inactive) in [1]; 15.5 µM (inactive) in assay [2]; 22.2 µM (inactive) in assay [4]; 16.9 µM (inactive) in assay [5]; 23.4 µM (inactive) in assay [6]. Moreover, the GI50 is 13.5 µM (inactive) in assay [7]; 12.3 µM (inactive) in assay [8]; 16.2 µM (inactive) in assay [10]; 20.1 µM (inactive) in assay [12]; 13.4 µM (inactive) in assay [13]; 13.9 µM (inactive) in [14]. Besides, the GI50 in assay [15] is 19.5 µM (inactive); in assay [16] it was 17.7 µM (inactive); in [17], 16.1 µM (inactive); in assay [19], 17.5 µM (inactive).

For `O=C(c1ccccc1)N1CCN(C(=S)NC2CCCCC2)C1=S`, the GI50 in assay [1] is 24.3 µM (inactive); in assay [2] it was 17.8 µM (inactive); in assay [3], 15.5 µM (inactive); in assay [4], 17.7 µM (inactive); in [5], 33.3 µM (inactive); in [6] it was 12.2 µM (inactive). In addition, the GI50 in [7] is 21.7 µM (inactive); in assay [8] it was 17.5 µM (inactive); in assay [9], 25.8 µM (inactive); in [10], 16.1 µM (inactive); in assay [11], 19 µM (inactive); in assay [12], 18.5 µM (inactive). The GI50 in assay [13] is 16.1 µM (inactive); in assay [14], 24.2 µM (inactive); in [15], 13.5 µM (inactive); in [16], 15.9 µM (inactive); in assay [17], 13.4 µM (inactive); in [19], 17.1 µM (inactive).
